Source: ChEMBL document CHEMBL1201861, “Genomics of Drug Sensitity in Cancer screening data, Wellcome Trust Sanger Institute”

Assays:
Experiment in all cases: cells
Assay type in all cases: functional, cell-based, Homo sapiens
[1] = test system: COLO-824
Description: SANGER: Inhibition of human COLO-824 cell growth in a cell viability assay.

[2] = test system: NCI-H1838;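 also: growth inhibition of NCI-H1838 cells, determined with a cell viability readout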
Description: SANGER: Inhibition of human NCI-H1838 cell growth in a cell viability assay.

[3] = test system: NCI-H510A;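 also: growth inhibition of NCI-H510A cells, read out with a cell viability assay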
Description: SANGER: Inhibition of human NCI-H510A cell growth in a cell viability assay.

[4] = test system: RPMI-8866
Description: SANGER: Inhibition of human RPMI-8866 cell growth in a cell viability assay.

[5] = test system: SW872;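 also: growth inhibition of SW872 cells, read out by a viability assay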
Description: SANGER: Inhibition of human SW872 cell growth in a cell viability assay.

[6] = test system: NCI-H23;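 also: cell viability assay measuring growth inhibition of NCI-H23 cells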
Description: SANGER: Inhibition of human NCI-H23 cell growth in a cell viability assay.

[7] = test system: DJM-1;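 also: growth inhibition of human DJM-1 cells, read out by a cell viability assay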
Description: SANGER: Inhibition of human DJM-1 cell growth in a cell viability assay.

[8] = test system: SF-539;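 also: Read-out is a cell viability assay, with IC50 reflecting inhibition of cell growth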
Description: SANGER: Inhibition of human SF539 cell growth in a cell viability assay.

[9] = test system: ES7;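 also: growth inhibition of cultured human ES7 cells, read out as cell viability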
Description: SANGER: Inhibition of human ES7 cell growth in a cell viability assay.

[10] = test system: PSN1;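 also: suppression of growth of human PSN1 cells, read out by a cell viability assay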
Description: SANGER: Inhibition of human PSN1 cell growth in a cell viability assay.

[11] = biological target: KM-H2;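 also: growth inhibition of KM-H2 cells, read out by a cell viability assay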
Description: SANGER: Inhibition of human KM-H2 cell growth in a cell viability assay.

[12] = test system: LB2518-MEL;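 also: growth inhibition of human LB2518-MEL cells, measured with a cell viability assay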
Description: SANGER: Inhibition of human LB2518-MEL cell growth in a cell viability assay.

[13] = test system: BB49-HNC;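 also: cell viability assay read-out, reported as inhibition of BB49-HNC cell growth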
Description: SANGER: Inhibition of human BB49-HNC cell growth in a cell viability assay.

[14] = test system: BB65-RCC;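 also: growth inhibition of the cell line, measured with a cell viability assay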
Description: SANGER: Inhibition of human BB65-RCC cell growth in a cell viability assay.

[15] = test system: A3-KAW;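 also: growth inhibition of human A3-KAW cells, read out with a cell viability assay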
Description: SANGER: Inhibition of human A3-KAW cell growth in a cell viability assay.

[16] = test system: MHH-NB-11;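 also: growth inhibition of human MHH-NB-11 cells, read out by a cell viability assay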
Description: SANGER: Inhibition of human MHH-NB-11 cell growth in a cell viability assay.

[17] = test system: Mo
Description: SANGER: Inhibition of human Mo-T cell growth in a cell viability assay.

[18] = test system: HOP-62;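 also: cell growth inhibition determined with a viability assay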
Description: SANGER: Inhibition of human HOP-62 cell growth in a cell viability assay.

[19] = test system: LNCaP-Clone-FGC
Description: SANGER: Inhibition of human LNCaP-Clone-FGC cell growth in a cell viability assay.

[20] = test system: MPP-89;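 also: growth inhibition of human MPP-89 cells, read out with a cell viability assay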
Description: SANGER: Inhibition of human MPP-89 cell growth in a cell viability assay.

[21] = test system: TE-9;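 also: cell growth inhibition, measured with a cell viability readout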
Description: SANGER: Inhibition of human TE-9 cell growth in a cell viability assay.

[22] = test system: LXF-289 cell line
Description: SANGER: Inhibition of human LXF-289 cell growth in a cell viability assay.

[23] = test system: OVCAR-4;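 also: growth inhibition of human OVCAR-4 cells, measured with a cell viability assay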
Description: SANGER: Inhibition of human OVCAR-4 cell growth in a cell viability assay.

[24] = test system: NB6;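 also: growth inhibition of NB6 cells, read out by a cell viability assay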
Description: SANGER: Inhibition of human NB6 cell growth in a cell viability assay.

[25] = test system: SK-N-FI;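 also: cell viability assay measuring growth inhibition of human SK-N-FI cells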
Description: SANGER: Inhibition of human SK-N-FI cell growth in a cell viability assay.

[26] = test system: NCI-H82;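 also: growth inhibition of NCI-H82 cells, measured with a cell viability readout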
Description: SANGER: Inhibition of human NCI-H82 cell growth in a cell viability assay.

[27] = test system: LU-134-A
Description: SANGER: Inhibition of human LU-134-A cell growth in a cell viability assay.

[28] = test system: LOX IMVI
Description: SANGER: Inhibition of human LOXIMVI cell growth in a cell viability assay.

[29] = test system: KY821;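 also: growth inhibition of human KY821 cells, read out by a cell viability assay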
Description: SANGER: Inhibition of human KY821 cell growth in a cell viability assay.

[30] = test system: LB771-HNC;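 also: growth inhibition of LB771-HNC human cells, read out with a cell viability assay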
Description: SANGER: Inhibition of human LB771-HNC cell growth in a cell viability assay.

[31] = test system: U-266
Description: SANGER: Inhibition of human U-266 cell growth in a cell viability assay.

[32] = test system: LS-411N
[33] = test system: IST-MES1;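 also: growth inhibition of IST-MES1 cells, measured with a cell viability assay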
Description: SANGER: Inhibition of human IST-MES1 cell growth in a cell viability assay.

[34] = test system: IST-MEL1;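 also: growth inhibition of the cell line, read out with a cell viability assay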
Description: SANGER: Inhibition of human IST-MEL1 cell growth in a cell viability assay.

[35] = test system: TE-5;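 also: inhibition of cell growth, read out by a cell viability assay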
Description: SANGER: Inhibition of human TE-5 cell growth in a cell viability assay.

[36] = test system: EOL1;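 also: growth inhibition of EoL-1 cells, read out by a cell viability assay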
Description: SANGER: Inhibition of human EoL-1-cell cell growth in a cell viability assay.

[37] = test system: TK-10;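 also: growth inhibition of TK-10 cells, read out in a cell viability assay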
Description: SANGER: Inhibition of human TK10 cell growth in a cell viability assay.

[38] = test system: EW-16;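 also: growth inhibition of human EW-16 cells, read out as cell viability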
Description: SANGER: Inhibition of human EW-16 cell growth in a cell viability assay.

[39] = test system: ES5;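 also: growth inhibition of human ES5 cells, read out by a cell viability assay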
Description: SANGER: Inhibition of human ES5 cell growth in a cell viability assay.

[40] = test system: GB-1;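 also: growth of GB-1 cells judged by a viability assay, IC50 marks the concentration inhibiting growth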
Description: SANGER: Inhibition of human GB-1 cell growth in a cell viability assay.

[41] = test system: KG-1;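 also: growth inhibition of KG-1 cells, read out by a cell viability assay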
Description: SANGER: Inhibition of human KG-1 cell growth in a cell viability assay.

[42] = test system: OMC-1;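 also: growth inhibition of the OMC-1 cell line, measured by a cell viability assay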
Description: SANGER: Inhibition of human OMC-1 cell growth in a cell viability assay.

[43] = test system: K5
Description: SANGER: Inhibition of human K5 cell growth in a cell viability assay.

[44] = test system: C8166;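 also: growth inhibition of human C8166 cells measured by a cell viability assay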
Description: SANGER: Inhibition of human C8166 cell growth in a cell viability assay.

[45] = test system: KNS-42;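 also: growth inhibition of KNS-42 cells, read out with a cell viability assay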
Description: SANGER: Inhibition of human KNS-42 cell growth in a cell viability assay.

[46] = test system: L-363
Description: SANGER: Inhibition of human L-363 cell growth in a cell viability assay.

[47] = test system: SJSA-1;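 also: growth inhibition of human SJSA-1 cells, read out through a cell viability measurement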
Description: SANGER: Inhibition of human SJSA-1 cell growth in a cell viability assay.

[48] = test system: KNS-81-FD;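 also: growth inhibition of KNS-81-FD cells, read out with a cell viability assay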
Description: SANGER: Inhibition of human KNS-81-FD cell growth in a cell viability assay.

[49] = test system: MZ2-MEL;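 also: growth inhibition of MZ2-MEL cells read out with a cell viability assay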
Description: SANGER: Inhibition of human MZ2-MEL cell growth in a cell viability assay.

Work on CISPLATIN yielded an IC50 ([1]; colo-824) of 114 µM, an IC50 ([2]; nci-h1838) of 281 µM and an IC50 ([3]; nci-h510a) of 3.1 µM. The IC50 ([4]; rpmi-8866) was 13.2 µM, the IC50 ([5]; sw872) was 40.8 µM and the IC50 ([6]; nci-h23) was 40 µM. It also gave an IC50 ([7]; djm-1) of 6.36 µM, an IC50 ([8]; sf-539) of 3.53 µM and an IC50 ([9]; es7) of 1.87 µM. It also gave an IC50 ([10]; psn1) of 1.68 µM, an IC50 ([11]; km-h2) of 450 µM and an IC50 ([12]; lb2518-mel) of 116 µM. The IC50 ([13]; bb49-hnc) was 48.2 µM, the IC50 ([14]; bb65-rcc) was 2.82 µM and the IC50 ([15]; a3-kaw) was 164 µM. For the same compound, the IC50 ([16]; mhh-nb-11) was 4.83 µM, the IC50 ([17]; mo) was 892 µM and the IC50 ([18]; hop-62) was 659 µM. For the same compound, the IC50 ([19]; lncap-clone-fgc) was 515 µM, the IC50 ([20]; mpp-89) was 16.2 µM and the IC50 ([21]; te-9) was 15.4 µM. It also gave an IC50 ([22]; lxf-289) of 52.7 µM, an IC50 ([23]; ovcar-4) of 22.3 µM and an IC50 ([24]; nb6) of 318 µM. It also gave an IC50 ([25]; sk-n-fi) of 313 µM, an IC50 ([26]; nci-h82) of 74.9 µM and an IC50 ([27]; lu-134-a) of 3.94 µM. For the same compound, the IC50 ([28]; lox imvi) was 13.3 µM, the IC50 ([29]; ky821) was 80 µM and the IC50 ([30]; lb771-hnc) was 89.8 µM. It also gave an IC50 ([31]; u-266) of 154 µM, an IC50 ([32]; ls-411n) of 66.4 µM and an IC50 ([33]; ist-mes1) of 19.7 µM. The IC50 ([34]; ist-mel1) was 9.38 µM, the IC50 ([35]; te-5) was 211 µM and the IC50 ([36]; eol1) was 38 µM. It also gave an IC50 ([37]; tk-10) of 31 µM, an IC50 ([38]; ew-16) of 24.6 µM and an IC50 ([39]; es5) of 3.32 µM. For the same compound, the IC50 ([40]; gb-1) was 1.9 µM, the IC50 ([41]; kg-1) was 3.63 µM and the IC50 ([42]; omc-1) was 12.6 µM. The IC50 ([43]; k5) was 3.73 µM, the IC50 ([44]; c8166) was 208 µM and the IC50 ([45]; kns-42) was 20.5 µM. For the same compound, the IC50 ([46]; l-363) was 4.01 µM, the IC50 ([47]; sjsa-1) was 23 µM and the IC50 ([48]; kns-81-fd) was 535 µM. For the same compound, the IC50 ([49]; mz2-mel) was 13.4 µM.

Work on `CC[C@H](CO)Nc1nc(NCc2ccccc2)c2ncn(C(C)C)c2n1` [SELICICLIB] yielded an IC50 ([1]; Homo sapiens, COLO-824) greater than 16 µM, an IC50 ([2]; Homo sapiens, NCI-H1838) greater than 16 µM and an IC50 ([3]; Homo sapiens, NCI-H510A) greater than 16 µM. For the same compound, the IC50 ([4]; Homo sapiens, RPMI-8866) was greater than 16 µM, the IC50 ([5]; Homo sapiens, SW872) was greater than 16 µM and the IC50 ([6]; Homo sapiens, NCI-H23) was greater than 16 µM. For the same compound, the IC50 ([7]; Homo sapiens, DJM-1) was greater than 16 µM, the IC50 ([8]; Homo sapiens, SF-539) was greater than 16 µM and the IC50 ([9]; Homo sapiens, ES7) was greater than 16 µM. For the same compound, the IC50 ([10]; Homo sapiens, PSN1) was greater than 16 µM, the IC50 ([11]; Homo sapiens, KM-H2) was greater than 16 µM and the IC50 ([12]; Homo sapiens, LB2518-MEL) was greater than 16 µM. For the same compound, the IC50 ([13]; Homo sapiens, BB49-HNC) was greater than 16 µM, the IC50 ([14]; Homo sapiens, BB65-RCC) was 9.97 µM and the IC50 ([15]; Homo sapiens, A3-KAW) was 5.76 µM. The IC50 ([16]; Homo sapiens, MHH-NB-11) was greater than 16 µM, the IC50 ([17]; Homo sapiens, Mo) was greater than 16 µM and the IC50 ([18]; Homo sapiens, HOP-62) was greater than 16 µM. It also gave an IC50 ([19]; Homo sapiens, LNCaP-Clone-FGC) greater than 16 µM, an IC50 ([20]; Homo sapiens, MPP-89) greater than 16 µM and an IC50 ([21]; Homo sapiens, TE-9) greater than 16 µM. The IC50 ([22]; Homo sapiens, LXF-289) was greater than 16 µM, the IC50 ([23]; Homo sapiens, OVCAR-4) was greater than 16 µM and the IC50 ([24]; Homo sapiens, NB6) was greater than 16 µM. It also gave an IC50 ([25]; Homo sapiens, SK-N-FI) greater than 16 µM, an IC50 ([26]; Homo sapiens, NCI-H82) greater than 16 µM and an IC50 ([27]; Homo sapiens, LU-134-A) greater than 16 µM. The IC50 ([28]; Homo sapiens, LOX IMVI) was greater than 16 µM, the IC50 ([29]; Homo sapiens, KY821) was greater than 16 µM and the IC50 ([30]; Homo sapiens, LB771-HNC) was greater than 16 µM. The IC50 ([31]; Homo sapiens, U-266) was greater than 16 µM, the IC50 ([32]; Homo sapiens, LS-411N) was greater than 16 µM and the IC50 ([33]; Homo sapiens, IST-MES1) was greater than 16 µM. The IC50 ([34]; Homo sapiens, IST-MEL1) was greater than 16 µM, the IC50 ([35]; Homo sapiens, TE-5) was greater than 16 µM and the IC50 ([36]; Homo sapiens, EOL1) was greater than 16 µM. For the same compound, the IC50 ([37]; Homo sapiens, TK-10) was greater than 16 µM, the IC50 ([38]; Homo sapiens, EW-16) was greater than 16 µM and the IC50 ([39]; Homo sapiens, ES5) was greater than 16 µM. For the same compound, the IC50 ([40]; Homo sapiens, GB-1) was greater than 16 µM, the IC50 ([41]; Homo sapiens, KG-1) was greater than 16 µM and the IC50 ([42]; Homo sapiens, OMC-1) was greater than 16 µM. It also gave an IC50 ([43]; Homo sapiens, K5) greater than 16 µM, an IC50 ([44]; Homo sapiens, C8166) greater than 16 µM and an IC50 ([45]; Homo sapiens, KNS-42) greater than 16 µM. It also gave an IC50 ([46]; Homo sapiens, L-363) greater than 16 µM, an IC50 ([47]; Homo sapiens, SJSA-1) greater than 16 µM and an IC50 ([48]; Homo sapiens, KNS-81-FD) greater than 16 µM. The IC50 ([49]; Homo sapiens, MZ2-MEL) was greater than 16 µM.
